# Starred links: 1 amine or outer side, 2 acyl side, 3 side chain; linkers in the order of their positions; H or OH if unused. Residues, ends and D or L forms follow the SMILES beside them. *: point of attachment. βAsp = O=C(O)[CH](CC(=O)[*:2])N[*:1]; Bz = O=C(c1ccccc1)*
row,SMILES,melting point
1,CCc1c2c(c(C)c(C)c1N1CCN(c3ccc(OC)cc3)CC1)OC(C)(C)C2,150 to 151 °C
2,CN(CC(C)(C)NCc1c(CO)ccc(OCc2ccccc2)c1CO)c1ccccc1,93 to 98 °C
3,CN(N=Cc1ccc(Br)cc1)C(=O)c1[nH]c2ccccc2c1-c1ccccc1,210 to 212 °C
4,CN(c1cccc2cc(-c3ncc(CC(=O)N4CCOCC4)s3)[nH]c12)S(=O)(=O)c1cccs1,199 to 200 °C
5,CC(C)c1nn(-c2ccc(C(F)(F)F)cn2)cc1CCCOc1nn(C2CCCCC2)cc1CC(=O)O,116 to 117 °C
6,O=C(O)C(=Cc1ccc(OCc2ccccc2)cc1OCc1ccccc1)Cc1ccccc1,175 to 176 °C
7,CCCCOC(=O)N[C@H]1C(=O)N[C@H]1CO (relative stereo),128 to 131 °C
8,COCCc1cccc2oc(C(=O)Nc3ccc(-c4ccc(S(=O)(=O)NC(C(=O)OC)C(C)C)cc4)cc3)c(C)c12 (stereo unspecified),67 to 70 °C
9,COCCNC(=O)c1cccc(-c2ccc(F)c3cc(Cc4cccc(C(F)(F)F)c4)sc23)c1,123 to 124 °C
10,[N-]=[N+]=NCCO/N=C(\C(=O)O)c1csc(N)n1,180 °C
11,O=C(O)CCCCCCCCCCCCCCCOCc1ccccc1,56 to 59 °C
12,OCC1COC(Cc2nc[nH]n2)(c2ccc(Cl)cc2)O1 (stereo unspecified),115 to 117 °C
13,CCN(CC)c1ccc(C2(c3ccc(N(C)C)cc3)OC(=O)c3ccccc32)c(N(CC)CC)c1 (stereo unspecified),117 to 119 °C
14,O=[N+]([O-])c1ccc(OCCc2ccc(CCl)cn2)cc1,77 to 78 °C
15,CC1(C2CCC3C4CCC5CC6OC6CC5(C)C4C(=O)CC32C)OCCO1 (stereo unspecified),159 to 160 °C
16,Cc1ccc(-c2nc(C)ccc2N2CCN(c3ccc(C)cc3)CC2)cc1,131 to 139 °C
17,OC(CCl)COc1ccc2c(c1)OCC(c1ccccc1)C2 (stereo unspecified),74 to 76 °C
18,CCCCc1c2c(nn1C(C)(C)C)c(N)nc1ccccc12,222 to 223 °C
19,CC(C)c1nc(CN2C(=O)C3(COc4cc5c(cc43)OCO5)c3c(Cl)cccc32)no1 (stereo unspecified),165 to 167 °C
20,O=[N+]([O-])c1ccc(-c2ccc(-c3ccc([N+](=O)[O-])cc3OCc3ccccc3)o2)c(OCc2ccccc2)c1,233 to 237 °C
21,CS(=O)(=O)c1cc2[nH]c(=O)c(=O)n(C3CCCCC3)c2cc1[N+](=O)[O-],> 280 °C
22,CCCOc1ccccc1-c1nc2nc(N)nnc2c(=O)[nH]1,255 to 256 °C
23,Cc1c(C(=O)NC2CCCCC2)nc(-c2ccccc2Cl)n1-c1ccc([N+](=O)[O-])cc1,217 to 220 °C
24,Nn1c(C(F)(F)F)cc(-c2ccc(C(F)(F)F)cc2)cc1=S,156 °C
25,c1ccc(-c2nc(SCCCSCCCSc3nc(-c4ccccc4)c(-c4ccccc4)[nH]3)[nH]c2-c2ccccc2)cc1,208 to 209 °C
26,CC(NC(=O)CC(NC(=O)c1ccccc1)C(=O)O)C(=O)N1CCCC1C(=O)O (stereo not drawn) ({Bz-βAsp}-Ala-Pro-OH; configuration not given here),110 °C
27,O=C(NCCCCN1CCC(c2cccc3ccccc23)CC1)c1ccc(NC(=O)c2ccc(Cl)cc2)cc1,264 °C

row,SMILES,melting point
1,CC[C@H](C)CNC(=O)[C@@H](C[C@H](O)[C@H](CC1CCCCC1)NC(=O)OC(C)(C)C)C(C)(C)O,64 to 67 °C
2,O=C1NC(=S)NC(=O)C1c1ccccc1F,> 240 °C
3,NS(=O)(=O)c1c(C(F)F)nsc1OCC(F)(F)F,102 to 104 °C
4,CC(c1ccc(F)cc1)n1ncc(-c2ccc(S(C)(=O)=O)cc2)c(-c2ccc(F)cc2)c1=O (stereo unspecified),162 to 164 °C
5,CN(C)S(=O)(=O)c1ccc(C#N)c(C(F)(F)F)c1,133 to 136 °C
6,CN(C)Cc1cc(C(=O)Nc2nc(-c3ccco3)c(C(=O)c3ccccc3)s2)ccn1,205 to 209 °C
7,NC(=O)C1=NN(c2cccc(COCC(F)(F)C(F)(F)F)c2)C(c2ccccc2)N1 (stereo unspecified),146 to 148 °C
8,CC(C)c1ccnc(C(C)C)c1N,35 to 39 °C
9,O=C1CCC(c2ccccc2Cl)=NN1,114 to 116 °C
10,C=CCOc1ccccc1-c1ccc(C#N)cc1,68 to 69 °C
11,CS(=O)c1ncc2ccc(=O)n(-c3ccccc3)c2n1 (stereo unspecified),248 to 250 °C
12,CC1(C)COC(=O)N1c1nc(-c2ccc(Cl)c(F)c2)cs1,140 to 142 °C
13,CCCN(c1ncnc2[nH]cnc12)n1cccc1,181 to 183 °C
14,NCCN1CCC(=C2c3ccccc3C=Cc3ccccc32)CC1,102 °C
15,CC(C)(C)c1ccc(C(O)CCCN2CCC(=C3c4ccccc4COc4ccccc43)CC2)cc1 (stereo unspecified),160 to 161 °C
16,CCc1nnc(-c2ccc(OC)cc2)n1-c1ccccc1C,118 °C
17,CC(C)[C@](C)(S)C(=O)O,78 to 80 °C
18,Nc1nc(CN2CCN(C(c3ccccc3)c3ccccc3)CC2)cs1,156 to 160 °C
19,O=C(Nc1ccc(Cl)c(C(F)(F)F)c1)c1ccccc1SSc1ccccc1C(=O)Nc1ccc(Cl)c(C(F)(F)F)c1,129 to 131 °C
20,Cn1c2ccc(C=O)cc2c2sc3ccccc3c21,188 to 190 °C
21,O=C1C(=O)c2ccccc2C2=C1SCC1(CCN(CC(O)CC(F)(F)F)CC1)O2 (stereo unspecified),145 to 148 °C
22,CN1C(=O)CC(c2ccccc2)C1C(O)c1ccc(-c2ccc(F)c(Cl)c2)s1 (stereo unspecified),194 °C
23,O=C(C=Cc1ccco1)Nc1nnn[nH]1,287 to 289 °C
24,COC(=O)CNC(=O)NCCCCC1CCSS1 (stereo unspecified),62 to 64 °C
25,Cn1cnc2nc(-c3ccc(Cl)cn3)nn2c1=S,> 300 °C
26,CN(CCOc1ccc(OC(F)(F)F)cc1)C1CCN(c2ccc(OC[C@@]3(C)Cn4cc([N+](=O)[O-])nc4O3)cc2)CC1,186 to 188 °C

# More lines, now with the values ahead:
row,melting point,SMILES
1,95 to 97 °C,CCNC(=O)n1nc(Oc2ccc([N+](=O)[O-])cc2C(F)(F)F)cc1C
2,146 °C,CCCCNC(=O)N(C)c1cccc(-c2ccc(C=C(OC)C(=O)O)cc2)c1
3,205 to 206 °C,"CC1(C)CC(c2ccccc2)Nc2c(C(=O)O)cnn21 (single isomer, unassigned; (-))"
4,194 to 195 °C,O=C(Oc1cccc(OC(=O)c2cc(O)c(O)c(O)c2)c1)c1cc(O)c(O)c(O)c1
5,104 °C,COC(=O)c1cc(I)cc(OC)c1O
6,87 °C,COc1cccc(C=CCN2CCc3nc(N)sc3CC2)c1OC
7,105 °C,C=CCc1c(OCC(O)COc2ccc3c(=O)cc(C(=O)O)oc3c2CC=C)ccc(C(C)=O)c1O (stereo unspecified)
8,182 to 184 °C,COc1cc(OC)nc(-c2c(C)[nH]c3ccccc23)n1
9,125 °C,COC(=O)c1ccc(C(=O)NCc2cccc3ccccc23)s1
10,184 to 188 °C,C=CCc1cc(C=C2SCNC2=O)cc(CC=C)c1O
11,123 to 124 °C,CCOC(=O)Nc1c(-c2ccccc2)c2cc(Cl)ccc2n1C
12,177 to 179 °C,CCC(N)C1CCN(c2c(F)cc3c(=O)c(C(=O)O)cn(C4CC4)c3c2F)C1 (stereo unspecified)
13,190 to 195 °C,NCC1CN(c2c(F)cc3c(=O)c(C(=O)O)cn(C4CC4)c3c2F)C1
14,178 to 179 °C,COC(=O)c1cc(Cl)cc2c1OC(C)(C)C(=O)N2
15,213 to 214 °C,Cn1ncc2c1-c1c(Oc3ccc(CC(=O)O)cc3)sc(C(N)=O)c1CC2
16,280 °C,Nc1nc(-n2cc(C(=O)O)c(=O)c3cc(F)c(F)c(F)c32)c(F)cc1F
17,186 to 190 °C,CC(C)CC(=O)N1CCC(c2nc3cc(-c4ccc(C(N)=O)c(F)c4)ccc3o2)CC1
18,135 to 137 °C,CCOc1cc2cc(CO)cc(-c3ccnc(Cl)c3)c2cc1OCC
19,276 to 278 °C,CCOC(=O)c1cc2c3n(ccc-2n1)CC(C(C)(C)C)=N3
20,151 to 152 °C,COC(=O)c1cc2nc(C)[nH]c2cc1C(=O)OC
21,254 °C,COCOc1cc(F)ccc1-c1cc(-c2cccc(C(=O)O)c2)c(C#N)c(NC(=O)c2ccco2)n1
22,84 to 85 °C,CCCCCCCCCCCCn1nnc(C(=NOC)C(=O)Nc2c(OC)cc(OC)cc2OC)n1

row,melting point,SMILES
1,147 to 149 °C,CC1(C)CCC(C)(C)c2cc(-c3cc(C=CC(=O)O)ccc3O)c(OCc3ccc(Cl)cc3)cc21
2,214 to 216 °C,COc1cc(OC)c2c(=O)cc(-c3ccc(C#N)cc3)oc2c1C1CCN(C)C1CO (stereo unspecified)
3,83 to 84 °C,C#CCOc1cnc(C2=NC(C)(C(C)C)C(=O)N2)c(C(=O)OC)c1 (stereo unspecified)
4,178 to 185 °C,CC(=O)Nc1nnnn1CC(I)=C(I)I
5,116 to 118 °C,COC(=O)[C@H](Cc1ccc(OS(=O)(=O)C(F)(F)F)c(C2SCCS2)c1)NC(C)=O
6,159 to 161 °C,C=CCONC(=O)c1nc(-c2ccc(Cl)c(OC)c2F)nc(N)c1Cl
7,133 to 135 °C,COc1ccc2cc(-c3ccc(C#C[Si](C)(C)C)cc3)[nH]c(=O)c2c1
8,55 to 57 °C,Oc1ccc(F)cc1C=C(Cl)Cl
9,237 to 239 °C,O=C(O)c1ccc(OC(=O)c2cccc(C34CC5CC(CC(C5)C3)C4)c2)cc1
10,155 °C,COc1cc(-c2cccc(Cl)c2)c2cc(C(O)(c3ccc(Cl)cc3)c3nncn3C)ccc2n1 (stereo unspecified)
11,277 to 282 °C,COCC1COc2cc3ncnc(Nc4cccc(Cl)c4)c3cc2O1 (stereo unspecified)
12,230 °C,CC[C@]12CC[C@@H]3c4ccc(O)cc4CC[C@H]3[C@@H]1C=CC2=O
13,79 to 81 °C,CC(C)(C)S(=O)C1CC(=O)N1CC(=O)CCc1ccccc1 (stereo unspecified)
14,118 to 120 °C,COC(=O)CCS(=O)(=O)c1ccc(C=C(C)c2ccc3c(c2)C(C)(C)CCC3(C)C)cc1
15,103 to 105 °C,CCCc1c(Cl)oc2ccc(I)cc2c1=O
16,155 to 157 °C,CCOC(=O)c1c(O)c2ccc(C)nc2n(Cc2ccccc2)c1=O
17,87 to 89 °C,O=Cc1ccc(OC2CCCC2)c(O)c1
18,230 to 231 °C,COCc1nc2c(OC)ccc(C(=O)Nc3c(Cl)cncc3Cl)c2[nH]1
19,173 to 174 °C,CC(=O)NC1Cc2ccc(C(=O)CCl)cc2C1 (stereo unspecified)
20,138 to 141 °C,CCCc1c(C(=O)N(C)Cc2ccc3cc(O)ccc3c2)cnn1-c1ccccc1
21,84 to 85 °C,COc1cccc(CC(=O)O)c1OCc1cc(OCc2ccc3ccccc3n2)n(C(C)C)n1

# From a melting point compilation (Tetko et al.; mined from patent text by program, amines drawn as free bases though some values may be those of a salt)
